The record followed here is ChEMBL document CHEMBL1130317 (J Med Chem, 1997).

By inhibition is commonly meant the drop in the measured response relative to a control, in per cent. High values mean strong suppression, low ones little suppression. As a reminder, the IC50 is the point on the concentration scale where inhibition reaches its midpoint. Low readings indicate greater potency, high ones weaker potency.

One assay is filed under the species Rattus norvegicus. The assay can be described thus: Ratio of IC50 value of rat kidney ALR to rat lens AR. The assay is classed as tissue-based. The following applies: Lens of camera-type eye.
Assay [1] concerns the target T1, Aldo-keto reductase family 1 member A1 (Rattus norvegicus) (UniProt P51635).
T1 sequence (whole entry): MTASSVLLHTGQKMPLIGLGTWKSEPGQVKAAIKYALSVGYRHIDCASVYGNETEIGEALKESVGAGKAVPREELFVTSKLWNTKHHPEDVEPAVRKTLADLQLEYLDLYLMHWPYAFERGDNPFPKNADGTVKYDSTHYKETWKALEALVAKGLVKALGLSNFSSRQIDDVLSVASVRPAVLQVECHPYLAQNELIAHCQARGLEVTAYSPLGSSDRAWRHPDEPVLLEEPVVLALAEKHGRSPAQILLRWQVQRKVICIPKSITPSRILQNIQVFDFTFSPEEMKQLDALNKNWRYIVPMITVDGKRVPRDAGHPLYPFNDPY
The assay can be described thus: Percent inhibition of rat kidney Aldehyde reductase (ALR) at 1x10E-4 M.

Assay [2] deals with Aldo-keto reductase family 1 member B1 (Rattus norvegicus, UniProt P07943). The assay is described as follows: Inhibitory activity against rat lens aldose reductase(AR).
Assay [3] deals with T2, Aldo-keto reductase family 1 member A1 (Rattus norvegicus, UniProt P51635).
T2 sequence (P51635 whole entry): T1 sequence (whole entry)
The assay is described as follows: In vitro inhibitory activity against rat kidney aldehyde reductase(ALR).

Assay [4] concerns the target Aldo-keto reductase family 1 member B1 (Rattus norvegicus) (UniProt P07943). The assay can be described thus: Inhibitory activity against rat lens aldose reductase(AR) at the concentration of 1*10e-7 M.

Take `O=C(O)Cn1ccc(=O)n(Cc2nc3c(Cl)cccc3s2)c1=O`: the Ratio in the assay listed under Rattus norvegicus was above 9090. Also, the inhibition in assay [1] was 39.3%. Besides, the figures for the IC50 in assay [2] and in assay [3] were 0.011 µM and above 100 µM, respectively.
Take `O=C(O)CN1C(=O)C(=O)N(Cc2cccc([N+](=O)[O-])c2)C1=O`: the inhibition in assay [1] came out at 37.3%.
Consider `O=C(O)CN1CC(=O)N(Cc2cccc([N+](=O)[O-])c2)C1=O`, for which the inhibition in assay [4] turned out to be 38.2%; in assay [1], 3.8%. In assay [3], this compound showed an IC50 above 100 µM.
Turning to `O=C(O)CN1CC(=O)N(Cc2nc3c(Cl)cccc3s2)C1=O`, in the assay filed under Rattus norvegicus, the Ratio is above 1610. The same compound came in with an inhibition in assay [1] of 37%. Besides, the values for the IC50 in assay [2] and in assay [3] were 0.062 µM and above 100 µM, respectively.
As to `C=C1N(CC(=O)O)C(=O)C(=O)N1Cc1cccc([N+](=O)[O-])c1`, the inhibition came to 17.7% in assay [4] and 12.4% in assay [1]. Moreover, in assay [3], the IC50 was above 100 µM.
As for `O=C(O)Cn1ccc(=O)n(Cc2nc3cc(Cl)ccc3s2)c1=O`, the Ratio in the assay listed under Rattus norvegicus is above 17500. Moreover, the inhibition in assay [1] worked out at 32%. The IC50 is 0.0057 µM in assay [2] and above 100 µM in assay [3].
The corresponding values for `O=C(O)CN1C(=O)C(=O)N(Cc2ccc(Cl)c([N+](=O)[O-])c2)C1=O` are above 6250, 39.5%, 0.016 µM and above 100 µM.
In the case of `O=C(O)Cn1ccc(=O)n(Cc2ccc(Cl)c([N+](=O)[O-])c2)c1=O`, in the assay listed under Rattus norvegicus, the Ratio is above 4000. The compound further returned an inhibition in assay [1] of 26.5%. Moreover, the IC50 is 0.025 µM in assay [2] and above 100 µM in assay [3].
For `O=C(O)CN1C(=O)C(O)N(Cc2cccc([N+](=O)[O-])c2)C1=O` (configuration not stated), the figures for the inhibition in assay [4] and in assay [1] were 5% and 19%, respectively. The IC50 in assay [3] was above 100 µM.
For `O=C(O)CN1C(=O)N(Cc2cccc([N+](=O)[O-])c2)C(=O)C1O` (configuration not stated) the same measures were 44%, 11% and above 100 µM.
For the compound `O=C(O)CN1C(=O)C(=O)N(Cc2nc3c(Cl)cccc3s2)C1=O`, the Ratio in the assay listed under Rattus norvegicus came to 6000. The 50% inhibitory concentration (IC50) turned out to be 0.012 µM in assay [2] and 72 µM in assay [3].
`O=C(O)CN1CC(=O)N(Cc2nc3cc(Cl)ccc3s2)C1=O` returned an inhibition in assay [4] of 47.5%.
`O=C(O)Cn1ccc(=O)n(Cc2cccc([N+](=O)[O-])c2)c1=O`: in the assay filed under Rattus norvegicus, the Ratio was above 2940. The inhibition in assay [1] turned out to be 17.4%. Also, the IC50 in assay [2] was 0.034 µM; in assay [3], above 100 µM.
Consider `O=C(O)CN1CC(=O)N(Cc2ccc(Cl)c([N+](=O)[O-])c2)C1=O`, for which the Ratio in the assay filed under Rattus norvegicus is above 4170. This compound also had an inhibition in assay [1] of 1.6%. Moreover, the IC50 in assay [2] was 0.024 µM; in assay [3], above 100 µM.
For the compound `C=C1C(=O)N(CC(=O)O)C(=O)N1Cc1cccc([N+](=O)[O-])c1`, in the assay listed under Rattus norvegicus, the Ratio was determined as 1810. The results for the IC50 in assay [2] and in assay [3] were 0.032 µM and 58 µM, respectively.
For `O=C(O)CN1C(=O)C(=O)N(Cc2nc3cc(Cl)ccc3s2)C1=O` the same measures were 3870, 0.015 µM and 58 µM.
For `O=C(O)Cn1c(=O)ccn(Cc2cccc([N+](=O)[O-])c2)c1=O`, the inhibition in assay [4] is 27.8%; in assay [1] it was 11.8%. In addition, the IC50 in assay [3] is above 100 µM.
For `O=C(O)CN1C(=O)C(=O)N(Cc2cccc([N+](=O)[O-])c2)C1=S`, in the assay listed under Rattus norvegicus, the Ratio was found to be 1120. The values for the IC50 in assay [2] and in assay [3] were 0.025 µM and 28 µM, respectively.
For the compound `O=C(O)CN1C(=O)CN(Cc2cccc([N+](=O)[O-])c2)C1=O`, in assay [4], the inhibition amounted to 4.6%. This compound came in with an IC50 in assay [3] above 100 µM.
As for `O=C(O)CN1C(=O)CC(=O)N(Cc2cccc([N+](=O)[O-])c2)C1=O`, the inhibition amounted to 1.5% in assay [4] and 33.5% in assay [1]. Moreover, the IC50 in assay [3] is above 100 µM.
